Laboratory results published in US20250269072A1, “PROCESSES FOR PREPARING RADIOLABELLED CONJUGATES” (CENTENARY INSTITUTE OF CANCER MEDICINE AND CELL BIOLOGY, priority 2021, published 2025).

Assays:
tumor deposits = assay: In-human study of ^68Ga-CDI: tumor uptake; format: in vivo
Method: Eight serial PET scans were then performed from skull vertex to the proximal femora. The first PET scan commenced immediately following administration of ^68Ga-CDI, with subsequent scans commencing at approximately 7, 17, 29, 47, 64, 120 and 180 minutes after administration (+/−5 minutes). All scans were performed on a Phillips ingenuity TF 128 PET CT scanner (Philips Medical Systems, Cleveland) with acquisition times increasing for each subsequent scan ranging from 30 s/bed (immediately after administration) to 240 s/bed (at 180 minutes after administration) to compensate for excretion and decay. All PET scans were reconstructed using CT attenuation correction with a time of flight, list-mode, blob-based, ordered subsets maximum likelihood expectation maximization algorithm (BLOB-OS-TF) (reconstructed voxel size 4×4×4 mm).
For analysis of uptake and biodistribution in normal tissues and organs, spherical volumes of interest (VOIs) were drawn on the Digital Imaging and Communications in Medicine (DICOM) ^68Ga-CDI-PET emission data on a workstation (IntelliSpace Portal, V5.0.2.60000, Philips Medical System, Best, The Netherlands) by an experienced nuclear medicine physician over clearly tumor-free regions of organs. VOI diameter varied depending on organ size but where possible was at least 10 mm. Spherical VOIs were also drawn over all tumor deposits greater than 10 mm in diameter. These VOIs were replicated across all time points and the mean, maximum and standard deviation of the activity concentration (Bq/mL) of all VOIs at each time point was recorded. Activity concentration was used to calculate the % injected activity (% IA) for organs and tissues based on the masses of source organs for standard phantom male and female models (Stabin & Siegel, Health Phys. 2003; 85:294-310). Mean, maximum and standard deviation of the SUV for each VOI was also a calculated from the activity concentration using the slope intercept stored with the DICOM CDI PET emission data.

[1] = tested on: squamous cell carcinoma lymph node metastases; assay: Histological correlation (TUNEL) with ^68Ga-CDI uptake; format: in vivo, human; details: subject 3, right axillary and right cervical nodal metastases
Excerpt: In one subject, who proceeded to surgical excision of the tumor deposits 1 day after the ^68Ga-CDI PET scan, histological correlation of the tumor deposits were undertaken using haematoxylin and eosin staining and TUNEL staining to specifically identify dead and dying cells. Representative samples of the formalin fixed surgical specimens (following completion of all clinical analysis and excess to that required for archival purposes) from the right axillary and right cervical nodal masses were selected and provided by the reporting clinical pathologist. The tissues were fixed, rehydrated with ethanol and xylene and embedded in paraffin. A series of 4 μm thick sections were cut and stained with Haematoxylin and Eosin. Apoptotic cells were stained using the TUNEL assay kit HRP-DAB (Abcam, Cat #206386, Cambridge, MA, USA) according to manufacturer's protocol. Briefly, 4 μm sections of paraffin embedded tumor were deparaffinized in xylene and rehydrated in decreasing concentrations of ethanol. Tumor sections were permeabilized with Proteinase K for 20 min at room temperature. The endogenous peroxidase activity was quenched with 3% H2O2 for 5 min. Apoptotic cells were labelled with biotinylated Terminal deoxynucleotidyl Transferase (TdT) at 37° C. in humidified chamber for 2 h followed by a 30 min incubation with streptavidin-HRP conjugate. […]

O=C(O)CNC(=O)[C@H](CSCC(=O)Nc1ccc([As](O)O)cc1)NC(=O)CC[C@H](NC(=O)CCC1C(=O)[O][68Ga]2[O]C(=O)CN3CCN(CCN1CC3)CC(=O)[O]2)C(=O)O (stereo partly shown) [^68Ga-NODAGA-GSAO]
tumor uptake SUVmax (tumor deposits; breast carcinoma): 2.5
tumor uptake SUVmax (tumor deposits; metastatic colorectal carcinoma): 4.4
tumor uptake SUVmax (tumor deposits; metastatic cutaneous squamous cell carcinoma): 6.5
tumor uptake SUVmax (tumor deposits; metastatic ovarian carcinoma): 2.7
tumor uptake SUVmax (tumor deposits; squamous cell carcinoma of the oesophagus): 5.7
tumor retention (tumor deposits; tumor in 4 of the 5 patients): prolonged retention throughout the duration of imaging
TUNEL positive cells versus intensity of uptake [1]: correlated
